Source: US20230080270A1, “NANOPARTICLES ENCAPSULATING SMALL MOLECULES” (ETH ZURICH, priority 2020, published 2023)
“And” between values parts separate entries of the source, which are not always exact repeats. Identical values can stand only once.

Legend:
[1] = cited from earlier work
HeLa cells [2] = assay: Flow cytometry of cellular uptake in HeLa cells; type: cell-based, human; settings: 500 nM Nile Red, population gating based on the PBS control
Description: (§1) Cell culture. HeLa cells were maintained in Dulbecco's Modified Eagle Medium (high glucose) supplemented with 10% fetal bovine serum (FBS), 2 mM L-glutamine, 2 mM GlutaMAX and 1 μg/mL gentamicin. Cells were cultured in 5% CO2 at 37° C. and typically split in a 1:4 ratio every 3 days. Only passage numbers between 7-20 were used for all experiments.
Flow cytometry. HeLa cells were seeded at a density of 30,000 cells per well in a 24-well plate in 500 μL of culture medium and allowed to recover at 37° C. and 5% CO2 for 24 hours to reach 60-80% confluency. Both OP protein and surfactant solutions were sterilized by filtration through a 0.22 μm membrane, and stocks were prepared in sterile PBS. Nile Red solution (50 μM) in 1:1 EtOH:H2O was used without sterilization. OP capsid-micelle complexes were prepared as described above. For each well 20 μL of sample in PBS was added to 200 μL of culture media to give the final concentration of 200 nM. Cells were incubated for 16-20 h in 5% CO2 at 37° C. before washing with PBS and trypsinization (0.05% Trypsin-EDTA (Thermo Fisher Scientific, USA), 4 minutes at 37° C.). Cells were collected in cold culture medium and washed twice with cold PBS before resuspension in flow cytometry buffer (PBS with 5% FBS).

[3] = in PBS buffer; cited from earlier work
HeLa cells [4] = assay: Cell viability assay (WST-8-based Cell Counting Kit-8); set-up: species or system human; settings: 2.5 μM lapatinib, 18 hour incubation
Description: as §1
Cell viability assay. Cytotoxicity was assessed using the WST-8-based Cell Counting Kit-8 from Sigma according to the manufacturer's instructions. HeLa cells were seeded at a density of 5,000 cells per well in a 96-well plate in 100 μL of culture medium and allowed to recover at 37° C. and 5% CO2 for 24 hours. Protein, surfactant and drug samples were prepared by serial dilution in sterile PBS. As a negative control 10 μL of 10% Triton X-100 in PBS were used per well. The positive control was just PBS. […] The plate was then incubated for 2-4 hours at 37° C. and 5% CO2 before measuring absorbance at 450 nm. The absorbance of CKK-8 in culture media, without cells, was used for background subtraction and samples were normalized to untreated cells to provide the values shown in FIG. 4e,f. Samples were measured in sextuplicate with biological replicates of different protein batches.

[5] = Native agarose gel electrophoresis of OP with increasing SDS equivalents; type: physicochemical; settings: up to 2000 SDS molecules per cage
Excerpt: Native agarose gel electrophoresis.
Cage-templated micelle formation. Sodium dodecyl sulfate (SDS) was chosen as the anionic surfactant (FIG. 2a), due to its aqueous solubility and the potential for favourable hydrogen bond formation between the sulfate headgroup and the many arginine residues on the interior surface of the OP capsid. As SDS is typically used as a protein denaturant, the inventors were curious if charge and shape complementarity of the OP cage could be leveraged to drive formation of a scaffolded micelle, rather than allowing hydrophobic interactions with the protein core to dominate, a pathway that leads to disruption of protein structure. As such, OP was subject to increasing molar equivalents of SDS, up to 2000 molecules per cage, and analyzed by native gel electrophoresis (FIG. 2b).

[6] = Nile Red fluorescence titration (surfactant content and cargo capacity); type: physicochemical; settings: two equivalents of Nile Red, increasing SDS content
Description: Nile Red fluorescence. For a typical fluorimetry experiment, 800 μL samples in PBS buffer were used. For the surfactant loading kinetics the ionic strength was adjusted by dissolving appropriate amounts of NaCl in PBS buffer. Stock solutions of Nile Red in acetone:water (1:1 v/v), or DMSO at concentrations of 50-500 μM were used. The excitation wavelength was set to 535 nm for all experiments.
This number fits with a value of —730 calculated from the volumetric capacity of the OP cavity (˜256 nm^3) and the average volume occupied by an SDS molecule in a micelle (Methods section).
As cargo-carrying is an important characteristic of the protein-micelle complex, the inventors also used fluorescence titration to determine the number of Nile Red molecules that could be accommodated per cage. Single equivalents of Nile Red were added stepwise to a solution of OP:SDS complexes and the fluorescence spectra measured for each addition (FIG. 3d). Between 1-5 molecules of Nile Red per cage, a logarithmic increase in fluorescence emission is observed with each equivalent. From 5-20 molecules of Nile Red a steady decrease in fluorescence is observed, and above 20 a steady increase in fluorescence is observed. We attribute these three distinct stages to: i) Nile Red encapsulation, ii) self-quenching and iii) excess free dye. […]

[7] = Effective concentration / volumetric capacity calculations; settings: OP cavity ~256 nm^3; SDS micelle radius 17.5 Å, aggregation number 64
Excerpt: Effective concentration calculations. The volume of the OP lumenal cavity (255,528 A) was estimated as a sphere with a radius of 39.4 A. This radius determined by averaging the distances between lumenally exposed residues from the reported crystal structure (Edwardson et al., 2018, op. cit.), using the UCSF Chimera software (Pettersen, E. F. et al. UCSF Chimera—a visualization system for exploratory research and analysis. J. Comput. Chem. 25, 1605-1612 (2004)). The effective concentration of SDS was simply estimated as the number of moles SDS per lumenal cavity volume. The expected number of SDS molecules was estimated by first determining the volume occupied by an individual SDS molecule in a micelle, from the reported average values of SDS micelle radius (17.5 Å) and aggregation number (n=64). Division of the OP cavity volume by the average volume of a single SDS molecule packed into micellar aggregates gives an estimated value of 729 molecules per OP cage, which is within error of the volume estimations and experimental results, which approximate 800 molecules.

CCN(CC)c1ccc2nc3c4ccccc4c(=O)cc-3oc2c1 [Nile Red]
solubility limit in organic solvents [1]: < 5 mM
fraction of cells Nile Red positive (HeLa cells [2]): 58%

CCCCCCCCCCCCOS(=O)(=O)[O-].[Na+] [SDS, Sodium dodecyl sulfate]
critical micelle concentration [3]: 4 to 5 mM

CS(=O)(=O)CCNCc1ccc(-c2ccc3ncnc(Nc4ccc(OCc5cccc(F)c5)c(Cl)c4)c3c2)o1 [lapatinib]
effect on cell viability (HeLa cells [4]): negligible effect

B1: OP: 24-mer octahedral porous protein cage with positively charged interior, polypeptide SEQ ID NO: 2 (protein)
chain: MSQAIGILELRSIAAGMELGDAMLKSANVDLLVSKTISRGKFLLMLGGDIGAIQQAIETGTSQAGRLLVDSLVLANIHPSVLPAISGLNSVDKRQAVGIVETRSVAACISAADRAVKGSNVTLVRVHMARGIGGKCYMVVAGDVSDVALAVTVASSSAGAYGRLVYASLIPRPHEAMWRQMVEGLEHHHHHH
modifications: 24-mer cage assembly
SDS equivalents per protein cage up to which no change to quaternary structure [5]: approximately 800 equivalents of SDS per protein cage
surfactant molecules per cage at plateau of Nile Red fluorescence [6]: ~800 molecules per cage
SDS molecules per OP cage calculated from cavity volume and volume of an SDS molecule in a micelle [7]: 729 molecules per OP cage and 730 molecules per OP cage
